Assay results as given in US8362000B2, “Azetidinyl diamides as monoacylglycerol lipase inhibitors” (Janssen Pharmaceutica NV, priority 2009, dated 2013).
Where a chain is given by its changes, count along the chain named. Where two headings read alike, the source gives them in different places.

Key:
[1] = target: T1, mutant MGL (Homo sapiens, UniProt Q99685, L169S/L176S); test: MGL ThermoFluor assay - mutant; format: binding
T1 sequence (Q99685 1-303 L169S/L176S): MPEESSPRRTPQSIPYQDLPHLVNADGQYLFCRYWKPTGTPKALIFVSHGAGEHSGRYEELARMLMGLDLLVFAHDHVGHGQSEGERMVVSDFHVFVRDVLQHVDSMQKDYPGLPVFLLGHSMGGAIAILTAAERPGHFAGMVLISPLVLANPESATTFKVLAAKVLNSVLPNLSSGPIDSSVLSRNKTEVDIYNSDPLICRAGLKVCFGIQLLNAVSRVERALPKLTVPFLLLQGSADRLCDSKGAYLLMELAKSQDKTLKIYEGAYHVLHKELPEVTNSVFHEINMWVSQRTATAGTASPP

[2] = target: T2, MGL (Rattus norvegicus, UniProt Q8R431); test: 2-AG accumulation assay in rat brain homogenate; format: biochemical; settings: rat brain homogenate, 2-AG accumulation as percent of vehicle; for 2-AG accumulation, % of vehicle control at 1 µM: compound 1 μM, read-out: Rat Brain 2AG % VehCntrl (%) @ 1 μM; for 2-AG accumulation, % of vehicle control at 0.01 µM: compound 0.01 μM, read-out: Rat Brain 2AG % VehCntrl (%) @ 0.01 μM; for 2-AG accumulation, % of vehicle control at 0.1 µM: compound 0.1 μM, read-out: Rat Brain 2AG % VehCntrl (%) @ 0.1 μM; for 2-AG accumulation, % of vehicle control at 10 µM: compound 10 μM, read-out: Rat Brain 2AG % VehCntrl (%) @ 10 μM
T2 construct: one g rat brain was homogenized using a Polytron homogenizer; from tissue; host or cells: rat brain homogenate
T2 sequence (Q8R431 1-303): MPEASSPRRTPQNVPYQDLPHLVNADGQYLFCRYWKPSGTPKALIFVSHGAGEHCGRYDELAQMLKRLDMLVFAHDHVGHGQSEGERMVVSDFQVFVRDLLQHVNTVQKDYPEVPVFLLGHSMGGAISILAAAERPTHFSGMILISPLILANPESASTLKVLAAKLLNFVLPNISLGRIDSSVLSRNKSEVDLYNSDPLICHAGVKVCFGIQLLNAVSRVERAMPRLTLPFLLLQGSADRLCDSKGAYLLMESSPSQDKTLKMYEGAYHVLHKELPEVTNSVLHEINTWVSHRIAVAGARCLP

[3] = target: T3, purified wild type MGL (wt-MGLL 6H-11-313) (Homo sapiens, UniProt Q99685)
T3 sequence (Q99685 1-303): T1 sequence (Q99685 1-303 L169S/L176S) with S169L, S176L

[4] = tested on: CFA-induced paw radiant heat hypersensitivity; test: CFA-induced paw radiant heat hypersensitivity; format: in vivo, rat; settings: Rattus norvegicus, po, 30 mg/kg p.o., HPβCD, last time point 180 or 300 min
Protocol: Each rat was placed in a test chamber on a warm glass surface and allowed to acclimate for approximately 10 min. A radiant thermal stimulus (beam of light) was then focused through the glass onto the plantar surface of each hind paw in turn. The thermal stimulus was automatically shut off by a photoelectric relay when the paw was moved or when the cut-off time was reached (20 sec for radiant heat at ˜5 amps). An initial (baseline) response latency to the thermal stimulus was recorded for each animal prior to the injection of complete Freund's adjuvant (CFA). […] Immediately following the post-CFA latency assessment, the indicated test compound or vehicle was administered orally.
The percent reversal (% R) of hypersensitivity was calculated in one of two different ways: 1) using group mean values or 2) using individual animal values. More specifically:
Method 2. For some compounds, the % R of hypersensitivity was calculated separately for each animal according to the following formula: % reversal=[(individual treatment response−individual CFA response)/(individual baseline response−individual CFA response)]×100. Results are given as a mean of the maximum % reversal values calculated for each individual animal.

[5] = ThermoFluor concentration-response, read-out: MGL mutant ThermoFluor Kd
[6] = group mean values, read-out: CFA thermal hypersensitivity Method 1: peak % reversal
[7] = individual animal values, read-out: CFA thermal hypersensitivity Method 2: peak % reversal
[8] = ThermoFluor thermal stability binding assay, read-out: MGL mutant ThermoFluor Kd
[9] = ThermoFluor, compound concentration measured by qNMR, read-out: MGL mutant ThermoFluor qKd (μM) (using qNMR conc.)

SMILES	Kd [1, 5] [µM]	2-AG accumulation, % of vehicle control at 1 µM [2] [%]	IC50 [3] [nM]	2-AG accumulation, % of vehicle control at 0.01 µM [2] [%]	2-AG accumulation, % of vehicle control at 0.1 µM [2] [%]	Kd [1, 8] [µM]	Kd [1, 9] [µM]	2-AG accumulation, % of vehicle control at 10 µM [2] [%]	inhibition in vivo at 30 mg/kg [4, 6] [%]	inhibition in vivo at 30 mg/kg [4, 7] [%]
O=C(c1ccc(-c2ccccc2)cc1)N1CC(N2CCN(C(=O)c3nccs3)CC2)C1 [Cpd 9, 1-[1-(Biphenyl-4-ylcarbonyl)azetidin-3-yl]-4-(1,3-thiazol-2-ylcarbonyl)piperazine]	0.00248	529	17.4	99	184	–	–	–	75.4	77.4
O=C(c1cscn1)N1CCN(C2CN(C(=O)c3sc4cc(Br)ccc4c3Cl)C2)CC1 [Cpd 333, 1-{1-[(6-Bromo-3-chloro-1-benzothiophen-2-yl)carbonyl]azetidin-3-yl}-4-(1,3-thiazol-4-ylcarbonyl)piperazine]	–	291	16.2	–	–	0.0039	–	–	27.7	–
O=C(c1ccccc1)N1CCN(C2CN(C(=O)c3ccc(-c4ccccc4)cc3)C2)CC1 [Cpd 5, 1-[1-(Biphenyl-4-ylcarbonyl)azetidin-3-yl]-4-(phenylcarbonyl)piperazine]	0.0548	156	523	122	123	–	–	279	96.6	100
O=C(c1ccc(Oc2ncc(C(F)(F)F)cc2Cl)cc1)N1CC(N2CCN(C(=O)c3nccs3)CC2)C1 [Cpd 663]	0.02	588	11	–	–	–	–	–	33.9	–
O=C(c1ccccc1)N1CCN(C2CN(C(=O)c3ccc(-c4ccc(Cl)c(Cl)c4)cc3)C2)CC1 [Cpd 39, 1-{1-[(3′,4′-Dichlorobiphenyl-4-yl)carbonyl]azetidin-3-yl}-4-(phenylcarbonyl)piperazine]	0.025	168	14.7	–	173	–	–	277	39.1	39.7

Continued, in another order:

Kd [1, 5] [µM]	2-AG accumulation, % of vehicle control at 1 µM [2] [%]	IC50 [3] [nM]	2-AG accumulation, % of vehicle control at 0.01 µM [2] [%]	2-AG accumulation, % of vehicle control at 0.1 µM [2] [%]	Kd [1, 8] [µM]	Kd [1, 9] [µM]	2-AG accumulation, % of vehicle control at 10 µM [2] [%]	SMILES	inhibition in vivo at 30 mg/kg [4, 6] [%]	inhibition in vivo at 30 mg/kg [4, 7] [%]
0.214	437	16	–	–	–	–	–	O=C(c1cccc(-c2ccc(F)cc2F)c1)N1CC(N2CCN(C(=O)c3nccs3)CC2)C1 [Cpd 1117, 1-{1-[(2′,4′-Difluorobiphenyl-3-yl)carbonyl]azetidin-3-yl}-4-(1,3-thiazol-2-ylcarbonyl)piperazine]	23.2	–
–	359	13	–	–	0.002	0.003	–	O=C(c1cscn1)N1CCN(C2CN(C(=O)c3sc4cc(C(F)(F)F)c(F)cc4c3Cl)C2)CC1 [Cpd 666]	-3.1	–
0.1	274	11	–	–	–	–	–	O=C(c1ccc(Oc2cccc(Cl)c2)c(F)c1)N1CC(N2CCN(C(=O)c3cscn3)CC2)C1 [Cpd 662]	21	24
–	307	28	–	–	0.046	0.08	–	O=C(c1ccccc1)N1CCN(C2CN(C(=O)c3ccc4c(ccn4-c4ccc(F)c(F)c4)c3)C2)CC1 [Cpd 571, 1-(3,4-Difluorophenyl)-5-({3-[4-(phenylcarbonyl)piperazin-1-yl]azetidin-1-yl}carbonyl)-1H-indole]	133	–
–	960	6	–	–	–	–	–	O=C(c1nccs1)N1CCN(C2CN(C(=O)c3sc4c(F)c(C(F)(F)F)ccc4c3Cl)C2)CC1 [Cpd 650]	29.9	–
–	152	82.9	–	–	–	–	427	O=C(c1ccccc1)N1CCN(C2CN(C(=O)c3ccc(-c4ccc(Cl)c(C(F)(F)F)c4)cc3)C2)CC1 [Cpd 232, 1-(1-{[4′-Chloro-3′-(trifluoromethyl)biphenyl-4-yl]carbonyl}azetidin-3-yl)-4-(phenylcarbonyl)piperazine]	9.6	8
